Data reported in patent US20230105108A1, “COMPOUNDS FOR THE TREATMENT OF BACTERIAL INFECTIONS AND POTENTIATION OF ANTIBIOTICS” (GEORGIA STATE UNIVERSITY RESEARCH FOUNDATION, INC., priority 2019, published 2023).
pIC50: −log10 of the molar value. Structures can show the parent of a compound that is named as a salt. Where two headings read alike, the source gives them in different places.

What was measured:
[1] = tested on: B. subtilis; test: MIC determination and sensitization fold on B. subtilis; format: cell-based; conditions: B. subtilis; for MIC: compound alone, read-out: MIC; for Sensitization fold: erythromycin
[2] = tested on: M. smegmatis; test: MIC on mycobacteria; format: cell-based, Mycobacterium smegmatis; conditions: for MIC: Mycolicibacterium smegmatis, read-out: MIC on mycobacteria
[3] = tested on: E. coli (ATCC 25922); test: MIC determination, sensitization fold and FIC index on E. coli; format: cell-based; conditions: for Sensitization: compound up to 25 μM; for MIC of AB with MD-124: MD-124 concentration 5 μg/ml
Procedure, shortened: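 E. coli in cation-adjusted Mueller Hinton II, 5×10^5 CFU/ml, 24 h at 37 °C shaking; rifampicin two-fold serial dilutions with or without fixed sensitizer (10 μM).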

[4] = tested on: NDM-1 expressing E. coli strain; test: microbe, parasite or virus in culture; format: cell-based; conditions: NDM-1 expressing E. coli towards the antibiotic
[5] = tested on: K. pneumoniae (43816); test: MIC, sensitization fold and FIC index on K. pneumoniae; format: cell-based; conditions: for MIC of AB with 5 μg/ml MD-124: K. pneumoniae; for Sensitization fold with 5 μg/ml MD-124: K. pneumoniae towards the antibiotic
[6] = tested on: A. baumannii (ATCC 17978); test: MIC, sensitization fold and FIC index on A. baumannii; format: cell-based; conditions: A. baumannii towards the antibiotic
[7] = Cytotoxicity in H9c2 cells (CCK-8); format: cell-based; conditions: rat, H9c2 cells; for CC50 at 24 h: H9c2 cell line
Procedure, shortened: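 H9c2 cells were grown in DMEM with 10% FBS, seeded the day before, and exposed to a range of di-amidine concentrations for 24 h at 37 °C, 5% CO2. Viability was read by CCK-8 after 3 h at 37 °C as absorbance at 450 nm.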

[8] = tested on: E. coli; test: Sensitization of E. coli (sensitization fold), Example 2; format: cell-based
Protocol: The sensitization fold of select compounds of the present invention was determined. E. coli bacteria were cultured in nutrient broth at 37° C. overnight prior to treatment. […] Bacterial density was measured based on OD600.

[9] = Cytotoxicity on mammalian cells (CCK-8), NIH3T3; format: cell-based; conditions: mouse, NIH3T3 cells, 3T3 cell line
Protocol: (§1) Cytotoxicity test of bacterial sensitizers on mammalian cells. Cell viability was assessed by using Cell Counting Kit-8 (CCK-8, Dojindo, Japan). HEK293 or NIH3T3 cells were seeded in a 96-well plate one day before the experiment to reach 80% confluency. Cells were then incubated with various concentration of bacterial sensitizers at 37° C. with 5% CO2 for 24 h, then 10 μL of CCK-8 solution was added to each well, and the plate was incubated for an additional at 37° C. 2 h with 5% CO2. The optical density at 450 nm was recorded by plate reader; and the results were calculated as a percentage of viability compared with the untreated control.

[10] = Cytotoxicity on mammalian cells (CCK-8), HEK293; format: cell-based; conditions: human, HEK293 cells; HEK293 cell line; 24 h
Protocol: as §1

[11] = tested on: MRSA (ATCC 33592); test: MIC determination and sensitization fold on MRSA; format: cell-based, methicillin-resistant Staphylococcus aureus; conditions: MRSA; rifampicin; compound at 4 μM
Protocol: Bacteria strains: E. coli (ATCC 25922), A. baumannii (ATCC 17978), K. pneumoniae (43816), S. maltophilia (ATCC 31559), S. typhimurium (ATCC 14028), C. werkmanii (ATCC 51114), S. aureus (ATCC 12600) and methicillin-resistant Staphylococcus aureus (MRSA, ATCC 33592) strains were purchased from ATCC. NR698 was provided.
Bacteria culture and MICs determination: Gram-negative bacteria were cultured in Mueller Hinton II cation-adjusted broth. Gram-positive bacteria were cultured in LB broth. Mycobacterium smegmatis was cultured in Middlebrook 7H9 Broth. MICs of antibiotics itself were determined by performing two-fold serial dilutions of antibiotics. MICs of antibiotics in the presence of bacterial sensitizers were determined by performing two-fold serial dilutions of antibiotics with or without a constant concentration of bacterial sensitizers. The MICs tests were performed on 96-well plates with a final volume of 200 μl Mueller Hinton II cation-adjusted broth in each well. Each well was inoculated with 5×10^5 CFU/ml bacteria and was incubated for 24 h at 37° C. with continuous shaking of 200 rpm. The bacterial density was then determined by OD600. Bacterial growth %=OD600 of antibiotic treatment group/OD600 of antibiotic non-treatment group. MICs was determined as the concentrations that inhibit more than 90% of bacteria growth.
Sensitization fold determination and FIC index calculations: Sensitization fold=MIC of antibiotic only/MIC of antibiotic with bacterial sensitizer. […] Since the MICs were determined by performing two-fold serial dilutions of antibiotic, so the sensitization fold can is the times of 2.
Bacteria strains (as indicated in Table 5B) were cultured with rifampicin at various concentrations in the presence or absence of 10 μM of the indicated compound for 20 h at 37° C. The MIC, sensitization, cytotoxicity, and MIC on mycobacteria were tested according to methods described herein. […] The sensitization activities of compounds on MRSA were tested using rifampicin. The sensitization activities of compounds on E. coli were tested using rifampicin.

[12] = tested on: HEK293 cells; test: Cytotoxicity on mammalian cells (CCK-8), HEK293; format: cell-based; conditions: for pIC50: Homo sapiens, HEK293
Protocol: as §1

[13] = tested on: NIH3T3 cells; test: Cytotoxicity on mammalian cells (CCK-8), NIH3T3; format: cell-based; conditions: 3T3 cell line; 24 h
Protocol: as §1

[14] = E. coli towards the antibiotic, MD-124 5 μg/ml
[15] = Escherichia coli, ATCC25922, 24 h, E. coli (wild type), antibiotic alone, read-out: MIC of AB only
[16] = Escherichia coli, ATCC25922, 24 h
[17] = 10 μM compound, rifampicin as the antibiotic (Table 6)
[18] = E. coli, rifampicin, compound at 10 μM

1, 4-Bis [((4-amidino)-2-methoxy)-phenoxy methyl]2-fluorobenzene dihydrochloride [MD-104]
MIC [1]: 25 µM | Sensitization fold ([1]; compound at 6 μM): 2-fold at 6. | Sensitization fold ([1]; compound at 12 μM): 8-fold at 12 μM | MIC on mycobacteria ([2]; M. smegmatis): 6 to 12 µM | MIC ([3]; E. coli, compound alone, read-out: MIC): 50 µM | Sensitization ([3]; E. coli, rifampicin): No effect up to 25 μM.

O=C(N[C@H](CO)[C@H](O)c1ccc([N+](=O)[O-])cc1)C(Cl)Cl [Chloramphenicol]
Sensitization fold with 5 μg/ml MD-124 [4]: 8 fold | MIC of AB with 5 μg/ml MD-124 [5]: 1.6 µg/mL | Sensitization fold with 5 μg/ml MD-124 [5]: >64 fold | Sensitization fold with 5 μg/ml MD-124 [6]: 4 fold | Sensitization fold [3, 14]: 8 fold | MIC of AB with MD-124 ([3]; E. coli): 1.6 µg/mL | MIC ([3]; Escherichia coli, ATCC25922, 24 h, read-out: MIC of AB only): 12.5 µg/mL

CCC[C@@H]1C[C@@H](C(=O)N[C@@H]([C@H]2O[C@H](SC)[C@H](O)[C@@H](O)[C@H]2O)[C@H](C)Cl)N(C)C1 [Clindamycin, reference compound]
MIC of AB with 5 μg/ml MD-124 [5]: 25 µg/mL | MIC of AB with MD-124 ([3]; E. coli): 3.2 µg/mL | MIC [3, 15]: 200 µg/mL

N=C(N)c1ccc(-c2ccc(-c3ccc(C(=N)N)cc3)[se]2)cc1 [Compound R]
IC50 at 24 h [7]: > 100 µM | Sensitization ability: fold sensitization of E. coli towards rifampicin ([8]; compound at 25 μM): At 25 μM, sensitize E. coli towards rifampicin for 32-fold;

N=C(N)c1ccc(-c2ccc(-c3ccc(-c4ccc(C(=N)N)cc4)o3)o2)cc1 [Compound T]
IC50 at 24 h ([7]; H9c2 cells (ATCC CRL-1446)): > 100 µM | Sensitization ability: fold sensitization of E. coli towards rifampicin ([8]; compound at 25 μM): At 25 μM, sensitize E. coli towards rifampicin for 32-fold;

N=C(N)c1ccc(-c2ccc3[nH]cc(-c4nc5ccc(C(=N)N)cc5[nH]4)c3c2)cc1 [Compound U, 3-(5-Amidinobenzimidazol-2-yl)-5-(4-amidinophenyl)indole acetate salt]
IC50 at 24 h ([7]; H9c2 cells (ATCC CRL-1446)): 100 µM | Sensitization ability: fold sensitization of E. coli towards rifampicin ([8]; compound at 10 μM): At 10 μM, sensitize E. coli towards rifampicin for 32-fold;

N=C(N)c1ccc(OCc2cccc(COc3ccc(C(=N)N)cc3)c2F)cc1 [DB2573, 1,3-Bis{(4-amidino)-phenoxymethyl}-2-fluorobenzene dihydrochloride]
CC50 at 24 h [7]: 50 µM | Sensitization fold ([1]; compound at 12 μM): 4-fold at 12 μM | MIC ([1]; Bacillus subtilis, 24 h): 25 µM | MIC [2]: 12 µM | Sensitization fold ([3]; E. coli, rifampicin, compound at 12 μM): 32-fold at 12 μM | MIC [3, 16]: 25 µM

CC(=O)O[C@H]1C[C@@]2(C)[C@@H](C[C@@H](O)[C@H]3[C@@]4(C)CC[C@@H](O)[C@@H](C)[C@@H]4CC[C@@]32C)/C1=C(\CCC=C(C)C)C(=O)O [Fusidic acid, reference compound]
MIC of AB with 5 μg/ml MD-124 [5]: 25 µg/mL | Sensitization fold with 5 μg/ml MD-124 [5]: 4 fold | Sensitization fold with 5 μg/ml MD-124 [6]: 128 fold | Sensitization fold [3, 14]: 32 fold | MIC of AB with MD-124 ([3]; E. coli): 6.25 µg/mL | MIC [3, 15]: > 200 µg/mL

N=C(N)c1ccc(OCc2ccc(COc3ccc(C(=N)N)cc3)cc2)cc1 [MD-101, 1,4-Bis [(4-amidino)-phenoxymethyl]benzene dihydrochloride]
CC50 at 24 h [7]: 50 µM | Sensitization fold ([1]; compound at 3 μM): 2-fold at 3 μM. | Sensitization fold ([1]; compound at 6 μM): 4-fold at 6 μM, | MIC ([1]; Bacillus subtilis, 24 h): 25 µM | CC50 at 24 h [9]: > 100 µM | MIC [2]: 3 to 6 µM | Sensitization ([3]; E. coli, rifampicin): No effect up to 25 μM | MIC [3, 16]: 100 µM | CC50 at 24 h [10]: > 100 µM

Cc1cc(COc2ccc(C(=N)NC(C)C)cc2)cc(COc2ccc(C(=N)NC(C)C)cc2)c1 [MD-102, 4,4′-(((5-methyl-1,3-phenylene)bis(methylene))bis(oxy))bis(N-isopropylbenzimidamide) dihydrochloride]
CC50 at 24 h [7]: > 100 µM | Sensitization fold ([1]; compound at 2 μM): 4-fold at 2 μM | CC50 at 24 h [9]: > 100 µM | Sensitization fold [11]: 32-fold at 4 μM | MIC [2]: 3 µM | Sensitization fold [3, 17]: 1 fold | Sensitization ([3]; E. coli, rifampicin): No effect up to 25 μM. | MIC [3, 16]: 50 µM | sensitization activity ([3]; rifampicin, compound at up to 10 μM): no sensitization activity | CC50 at 24 h [10]: > 100 µM

CC(C)(C)c1cc(COc2ccc(C(=N)N)cc2)cc(COc2ccc(C(=N)N)cc2)c1 [MD-105, 4,4′-(((5-(tert-butyl)-1,3-phenylene)bis(methylene))bis(oxy))dibenzimidamide dihydrochloride]
CC50 at 24 h [7]: 25 µM | MIC [2]: 6 µM | Sensitization fold [3, 17]: 16 fold | Sensitization fold [3, 18]: 16-fold at 10 μM. | MIC [3, 16]: 25 µM | pIC50 [12]: 4.30 to 4.60

N=C(N)c1ccc(OCc2cc(COc3ccc(C(=N)N)cc3)cc(COc3ccc(C(=N)N)cc3)c2)cc1 [MD-107, 4,4′,4″-((benzene-1,3,5-triyltris(methylene))tris(oxy))tribenzimidamide trihydrochloride]
CC50 at 24 h [7]: > 100 µM | Sensitization fold ([1]; compound at 6 μM): 8-fold at 6 μM | MIC ([1]; Bacillus subtilis, 24 h): 12.5 µM | CC50 at 24 h [9]: > 100 µM | MIC [2]: 3 to 6 µM | Sensitization fold ([3]; E. coli, rifampicin, compound at 12.5 μM): 4-fold at 12.5 μM | Sensitization fold ([3]; E. coli, rifampicin, compound at 25 μM): 8-fold at 25 μM | MIC [3, 16]: 50 µM | CC50 at 24 h [10]: > 100 µM

COc1cc(OCc2ccc(C(=N)N)cc2)cc(OCc2ccc(C(=N)N)cc2)c1 [MD-126, 4,4′-(((5-methoxy-1,3-phenylene)bis(oxy))bis(methylene))dibenzimidamide dihydrochloride]
CC50 [13]: 100 µM | Sensitization fold [3, 17]: 2 fold | Sensitization fold [3, 18]: 2-fold at 10 μM | MIC [3, 16]: > 50 µM | CC50 ([12]; HEK293 cell line, 24 h): 100 µM | pIC50 [12]: 4.00
